The results in this text go back to ChEMBL document CHEMBL1201862, “PubChem BioAssay data set” (2004).

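Cultured in 96-well plates, cells were exposed to test compound for 48 hours across five concentrations. GI50: concentration for 50% inhibition of growth.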 Calls of active or inactive are those of the source. Cut-off read from the data, not from the text of the source: active = GI50 up to about 1.1 µM and inactive = higher. A value given as a limit tells only on which side of the number the result lay.

Among the test systems are U-251; LXFL 529; NCI-H23; RXF 393; LOX IMVI; SK-MEL-2; OVCAR-8; COLO 205; OVCAR-5; HOP-92; A498; SK-OV-3; M14; A549; IGROV-1; SNB-19; SK-MEL-28; HCT-15.
Assay in all cases: DTP human tumour cell line panel, 48 h

As to `C=CN1C(=O)OC[C@@H]1c1ccccc1`, the GI50 was 96.6 µM (inactive) with U-251; > 100 µM (inactive) in the test with LXFL 529; > 100 µM (inactive) with NCI-H23; > 100 µM (inactive) in the test with RXF 393; 67 µM (inactive) in the test with LOX IMVI; > 100 µM (inactive) in the test with SK-MEL-2. The GI50 in the test with OVCAR-8, in the test with COLO 205, in the test on OVCAR-5, in the test on HOP-92, in the test with A498 and in the test with SK-OV-3 was > 100 µM (inactive) each time. Also, the GI50 in the test on M14 was > 100 µM (inactive); with A549, > 100 µM (inactive); in the test with IGROV-1 it was > 100 µM (inactive); in the test on SNB-19, > 100 µM (inactive); with SK-MEL-28 it was > 100 µM (inactive); in the test on HCT-15, 16.6 µM.

For `COc1ccccc1C1c2cc3c(cc2OC(O)(CO)C1C(=O)O)OCO3.COc1ccccc1C1c2cc3c(cc2OC2(O)COC(=O)C12)OCO3` (stereo not given), the GI50 with U-251, in the test with LXFL 529, in the test on NCI-H23, with RXF 393, in the test with LOX IMVI and in the test with SK-MEL-2 was > 100 µM (inactive) each time. For the same compound, the GI50 in the test with OVCAR-8, in the test with COLO 205, with OVCAR-5, in the test on HOP-92, in the test with A498 and with SK-OV-3 was > 100 µM (inactive) throughout. For the same compound, the GI50 in the test with M14 was > 100 µM (inactive); with A549, > 100 µM (inactive); with IGROV-1 it was > 100 µM (inactive); with SK-MEL-28, > 100 µM (inactive); in the test on HCT-15, > 100 µM.

Take `N#CC1C[C@@H]2CC3(CCC2CN1C(=O)c1ccccc1)OCCO3` (stereo not given in full): the GI50 in the test on U-251 was > 100 µM (inactive); in the test with LXFL 529 it was > 100 µM (inactive); in the test on NCI-H23 it was > 100 µM (inactive); in the test on RXF 393, > 100 µM (inactive); in the test on LOX IMVI it was > 100 µM (inactive); in the test on SK-MEL-2, 0.0925 µM (active). For the same compound, the GI50 in the test on OVCAR-8, in the test on COLO 205, with OVCAR-5, in the test on HOP-92, with A498 and with SK-OV-3 was > 100 µM (inactive) throughout. The GI50 in the test with M14 is > 100 µM (inactive); in the test with A549, > 100 µM (inactive); with IGROV-1 it was > 100 µM (inactive); in the test with SNB-19, > 100 µM (inactive); in the test with SK-MEL-28, > 100 µM (inactive); with HCT-15, > 100 µM.

With `COc1cccc(C=O)c1[O-].COc1cccc(C=O)c1[O-].[Zn+2]`, the GI50 in the test on U-251 is 38.4 µM (inactive); in the test with LXFL 529 it was 45.3 µM (inactive); in the test on NCI-H23 it was 79.3 µM (inactive); in the test with RXF 393, > 100 µM (inactive); in the test with LOX IMVI, 76.9 µM (inactive); with SK-MEL-2 it was 48.9 µM (inactive). Further, the GI50 in the test with OVCAR-8 is 43.8 µM (inactive); in the test with COLO 205, > 100 µM (inactive); with OVCAR-5, 53.7 µM (inactive); in the test on HOP-92, 21.9 µM (inactive); in the test with A498, > 100 µM (inactive); in the test with SK-OV-3, 36.6 µM (inactive). The GI50 in the test on M14 was 36.3 µM (inactive); with A549, > 100 µM (inactive); in the test with IGROV-1, 75.2 µM (inactive); in the test on SNB-19 it was > 100 µM (inactive); with SK-MEL-28, 76.7 µM (inactive); with HCT-15, 38 µM.

On to `CC(=O)N(N=O)c1ccc(N(N=O)C(C)=O)cc1`, for which the GI50 in the test on U-251, with LXFL 529, in the test with NCI-H23, in the test on RXF 393, in the test with LOX IMVI and in the test with SK-MEL-2 was > 100 µM (inactive) in each case. Besides, the GI50 with OVCAR-8, with COLO 205, with OVCAR-5, in the test with HOP-92, in the test on A498 and in the test with SK-OV-3 was > 100 µM (inactive) in each case. Also, the GI50 was > 100 µM (inactive) in the test with M14; > 100 µM (inactive) with A549; > 100 µM (inactive) with IGROV-1; > 100 µM (inactive) in the test with SNB-19; > 100 µM (inactive) in the test with SK-MEL-28; > 100 µM in the test with HCT-15.

`CN(C)NC(=S)NC12CC3CC(CC(C3)C1)C2`: the GI50 in the test with U-251, in the test with LXFL 529, in the test with NCI-H23, in the test on RXF 393, in the test on LOX IMVI and with SK-MEL-2 was > 100 µM (inactive) throughout. The GI50 was > 100 µM (inactive) with OVCAR-8; > 100 µM (inactive) with COLO 205; > 100 µM (inactive) in the test on OVCAR-5; 91.2 µM (inactive) in the test on HOP-92; > 100 µM (inactive) in the test with A498; > 100 µM (inactive) in the test with SK-OV-3. The GI50 in the test on M14 is > 100 µM (inactive); with A549 it was > 100 µM (inactive); in the test with IGROV-1, > 100 µM (inactive); in the test on SNB-19, > 100 µM (inactive); with SK-MEL-28, > 100 µM (inactive); in the test with HCT-15, > 100 µM.

For the compound `O=C1CC(S(=O)(=O)O)C=C1Nc1cccc(Cl)c1` (stereo not given), the GI50 in the test with U-251, with LXFL 529, in the test on NCI-H23, in the test on RXF 393, in the test with LOX IMVI and in the test on SK-MEL-2 was > 100 µM (inactive) throughout. The GI50 in the test on OVCAR-8, in the test with COLO 205, in the test on OVCAR-5, in the test with HOP-92, in the test with A498 and with SK-OV-3 was > 100 µM (inactive) in each case. Also, the GI50 with M14, with A549, with IGROV-1, in the test with SNB-19 and with SK-MEL-28 was > 100 µM (inactive) throughout.

As for `O=C1CCCCC1C1(O)C(=O)Nc2cc(F)ccc21` (stereo not given), the GI50 in the test on U-251, with LXFL 529, with NCI-H23, with RXF 393, in the test on LOX IMVI and in the test with SK-MEL-2 was > 100 µM (inactive) throughout. In addition, the GI50 in the test with OVCAR-8, in the test with COLO 205, with OVCAR-5, in the test with HOP-92, in the test on A498 and in the test with SK-OV-3 was > 100 µM (inactive) each time. The GI50 in the test on M14 is > 100 µM (inactive); in the test with A549, > 100 µM (inactive); in the test with IGROV-1, > 100 µM (inactive); in the test on SNB-19 it was > 100 µM (inactive); with SK-MEL-28, > 100 µM (inactive); in the test with HCT-15, > 100 µM.

As to `CC(N)Cc1ccc(Cl)c(Cl)c1` (stereo not given), the GI50 was 42.7 µM (inactive) with U-251; 19.1 µM (inactive) with LXFL 529; > 95.1 µM (inactive) with NCI-H23; 24.9 µM (inactive) in the test with RXF 393; 27.2 µM (inactive) in the test on LOX IMVI; 19.4 µM (inactive) with SK-MEL-2. In addition, the GI50 in the test with OVCAR-8 is > 66.2 µM (inactive); in the test with COLO 205, 20.3 µM (inactive); in the test with OVCAR-5, 30.1 µM (inactive); in the test on HOP-92, 22.6 µM (inactive); in the test with A498 it was 45 µM (inactive); in the test with SK-OV-3, 74.8 µM (inactive). The GI50 with M14 is 18.4 µM (inactive); in the test on A549, > 100 µM (inactive); in the test on IGROV-1, 51.6 µM (inactive); in the test on SNB-19 it was > 96.6 µM (inactive); in the test with SK-MEL-28, 20.4 µM (inactive); in the test with HCT-15, 30 µM.

`CCOC1C(Br)Cn2c(=O)c3cc4ccccc4cc3c(=O)n2C1C` (stereo not given): the GI50 is > 100 µM (inactive) in the test with U-251; 35.8 µM (inactive) in the test on LXFL 529; > 100 µM (inactive) in the test with NCI-H23; > 100 µM (inactive) with RXF 393; 73.5 µM (inactive) in the test on LOX IMVI; > 100 µM (inactive) in the test with SK-MEL-2. In addition, the GI50 was > 100 µM (inactive) in the test with OVCAR-8; 56.6 µM (inactive) in the test with COLO 205; > 100 µM (inactive) in the test with OVCAR-5; 97.7 µM (inactive) in the test on HOP-92; 12.2 µM (inactive) with A498; > 100 µM (inactive) in the test on SK-OV-3. For the same compound, the GI50 was 42.5 µM (inactive) with M14; 67.3 µM (inactive) in the test on A549; > 100 µM (inactive) in the test on IGROV-1; > 100 µM (inactive) in the test on SNB-19; > 100 µM (inactive) in the test on SK-MEL-28; 43.6 µM in the test on HCT-15.

`COc1ccc(C(=O)C(c2ccc(OC)cc2)C2(O)C(=O)Nc3ccc([N+](=O)[O-])cc32)cc1` (stereo not given): the GI50 in the test with U-251, with LXFL 529, in the test on NCI-H23, in the test on RXF 393, with SK-MEL-2 and in the test on OVCAR-8 was > 100 µM (inactive) each time. For the same compound, the GI50 in the test on COLO 205 was > 100 µM (inactive); in the test on OVCAR-5 it was > 100 µM (inactive); in the test on HOP-92, 32.9 µM (inactive); with A498, 17.7 µM (inactive); with SK-OV-3, > 100 µM (inactive); in the test with M14, > 100 µM (inactive). Moreover, the GI50 with A549 is > 100 µM (inactive); with IGROV-1, > 100 µM (inactive); in the test with SNB-19, > 100 µM (inactive); in the test on SK-MEL-28 it was > 100 µM (inactive); in the test on HCT-15, > 100 µM.
